Experimental data as given in ChEMBL document CHEMBL1671627, “Increasing trends in antimicrobial resistance among clinically important anaerobes and Bacteroides fragilis isolates causing nosocomial infections: emerging resistance to carbapenems” (2008).
≈ marks a conversion by molar mass, not a printed value.

How the values were obtained:
Bacteroides fragilis [1] = test: Antibacterial activity against Bacteroides fragilis assessed as susceptible isolates by CLSI agar dilution method; assay type: functional
Bacteroides fragilis [2] = test: Antibacterial activity against Bacteroides fragilis assessed as resistant isolates by CLSI agar dilution method; assay type: functional
[3] = system: Bacteroides thetaiotaomicron; test: Antibacterial activity against beta-lactamase producing Bacteroides thetaiotaomicron assessed as susceptible isolates by CLSI agar dilution method; assay type: functional
Phocaeicola vulgatus [4] = test: Antibacterial activity against beta-lactamase producing Bacteroides vulgatus by CLSI agar dilution method; assay type: functional
Phocaeicola vulgatus [5] = test: Antibacterial activity against beta-lactamase producing Bacteroides vulgatus assessed as susceptible isolates by CLSI agar dilution method; assay type: functional
Phocaeicola vulgatus [6] = test: Antibacterial activity against beta-lactamase producing Bacteroides vulgatus assessed as resistant isolates by CLSI agar dilution method; assay type: functional
Bacteroides uniformis [7] = test: Antibacterial activity against beta-lactamase producing Bacteroides uniformis by CLSI agar dilution method; assay type: functional
Bacteroides uniformis [8] = test: Antibacterial activity against beta-lactamase producing Bacteroides uniformis assessed as susceptible isolates by CLSI agar dilution method; assay type: functional
Bacteroides uniformis [9] = test: Antibacterial activity against beta-lactamase producing Bacteroides uniformis assessed as resistant isolates by CLSI agar dilution method; assay type: functional
Bacteroides caccae [10] = test: Antibacterial activity against beta-lactamase producing Bacteroides caccae by CLSI agar dilution method; assay type: functional
Bacteroides caccae [11] = test: Antibacterial activity against beta-lactamase producing Bacteroides caccae assessed as susceptible isolates by CLSI agar dilution method; assay type: functional
Bacteroides caccae [12] = test: Antibacterial activity against beta-lactamase producing Bacteroides caccae assessed as resistant isolates by CLSI agar dilution method; assay type: functional
Fusobacterium varium [13] = test: Antibacterial activity against Fusobacterium varium by CLSI agar dilution method; assay type: functional
Fusobacterium nucleatum [14] = test: Antibacterial activity against Fusobacterium nucleatum by CLSI agar dilution method; assay type: functional
Fusobacterium mortiferum [15] = test: Antibacterial activity against Fusobacterium mortiferum by CLSI agar dilution method; assay type: functional
[16] = system: Fusobacterium necrophorum; test: Antibacterial activity against Fusobacterium necrophorum by CLSI agar dilution method; assay type: functional
Fusobacterium varium [17] = test: Antibacterial activity against Fusobacterium varium assessed as susceptible isolates by CLSI agar dilution method; assay type: functional
Fusobacterium nucleatum [18] = test: Antibacterial activity against Fusobacterium nucleatum assessed as susceptible isolates by CLSI agar dilution method; assay type: functional
Fusobacterium mortiferum [19] = test: Antibacterial activity against Fusobacterium mortiferum assessed as susceptible isolates by CLSI agar dilution method; assay type: functional
[20] = system: Fusobacterium necrophorum; test: Antibacterial activity against Fusobacterium necrophorum assessed as susceptible isolates by CLSI agar dilution method; assay type: functional
Fusobacterium varium [21] = test: Antibacterial activity against Fusobacterium varium assessed as resistant isolates by CLSI agar dilution method; assay type: functional
Fusobacterium nucleatum [22] = test: Antibacterial activity against Fusobacterium nucleatum assessed as resistant isolates by CLSI agar dilution method; assay type: functional
Fusobacterium mortiferum [23] = test: Antibacterial activity against Fusobacterium mortiferum assessed as resistant isolates by CLSI agar dilution method; assay type: functional
[24] = system: Fusobacterium necrophorum; test: Antibacterial activity against Fusobacterium necrophorum assessed as resistant isolates by CLSI agar dilution method; assay type: functional
Prevotella buccae [25] = test: Antibacterial activity against Prevotella buccae by CLSI agar dilution method; assay type: functional; conditions: Segatella buccae
Prevotella bivia [26] = test: Antibacterial activity against Prevotella bivia by CLSI agar dilution method; assay type: functional
Prevotella intermedia [27] = test: Antibacterial activity against Prevotella intermedia by CLSI agar dilution method; assay type: functional
[28] = system: Prevotella melaninogenica; test: Antibacterial activity against Prevotella melaninogenica by CLSI agar dilution method; assay type: functional
Prevotella buccae [29] = test: Antibacterial activity against Prevotella buccae assessed as susceptible isolates by CLSI agar dilution method; assay type: functional, Segatella buccae
Prevotella bivia [30] = test: Antibacterial activity against Prevotella bivia assessed as susceptible isolates by CLSI agar dilution method; assay type: functional
Prevotella intermedia [31] = test: Antibacterial activity against Prevotella intermedia assessed as susceptible isolates by CLSI agar dilution method; assay type: functional
[32] = system: Prevotella melaninogenica; test: Antibacterial activity against Prevotella melaninogenica assessed as susceptible isolates by CLSI agar dilution method; assay type: functional
Prevotella buccae [33] = test: Antibacterial activity against Prevotella buccae assessed as resistant isolates by CLSI agar dilution method; assay type: functional, Segatella buccae
Prevotella bivia [34] = test: Antibacterial activity against Prevotella bivia assessed as resistant isolates by CLSI agar dilution method; assay type: functional
Prevotella intermedia [35] = test: Antibacterial activity against Prevotella intermedia assessed as resistant isolates by CLSI agar dilution method; assay type: functional
[36] = system: Prevotella melaninogenica; test: Antibacterial activity against Prevotella melaninogenica assessed as resistant isolates by CLSI agar dilution method; assay type: functional
Veillonella parvula = test: Antibacterial activity against Veillonella parvula by CLSI agar dilution method; assay type: functional
Clostridium perfringens = test: microbe, parasite or virus in culture; assay type: functional
[37] = system: Clostridium paraputrificum; test: Antibacterial activity against beta-lactamase producing Clostridium paraputrificum by CLSI agar dilution method; assay type: functional
Clostridium septicum [38] = test: Antibacterial activity against beta-lactamase producing Clostridium septicum by CLSI agar dilution method; assay type: functional
Clostridium tertium [39] = test: Antibacterial activity against beta-lactamase producing Clostridium tertium by CLSI agar dilution method; assay type: functional
[40] = system: Clostridium paraputrificum; test: Antibacterial activity against beta-lactamase producing Clostridium paraputrificum assessed as susceptible isolates by CLSI agar dilution method; assay type: functional
Clostridium septicum [41] = test: Antibacterial activity against beta-lactamase producing Clostridium septicum assessed as susceptible isolates by CLSI agar dilution method; assay type: functional
Clostridium tertium [42] = test: Antibacterial activity against beta-lactamase producing Clostridium tertium assessed as susceptible isolates by CLSI agar dilution method; assay type: functional
Bacteroides fragilis [43] = test: Antibacterial activity against Bacteroides fragilis by CLSI agar dilution method; assay type: functional
[44] = system: Bacteroides thetaiotaomicron; test: Antibacterial activity against beta-lactamase producing Bacteroides thetaiotaomicron by CLSI agar dilution method; assay type: functional
[45] = system: Clostridium paraputrificum; test: Antibacterial activity against beta-lactamase producing Clostridium paraputrificum assessed as resistant isolates by CLSI agar dilution method; assay type: functional
Clostridium septicum [46] = test: Antibacterial activity against beta-lactamase producing Clostridium septicum assessed as resistant isolates by CLSI agar dilution method; assay type: functional
Clostridium tertium [47] = test: Antibacterial activity against beta-lactamase producing Clostridium tertium assessed as resistant isolates by CLSI agar dilution method; assay type: functional
[48] = system: Peptostreptococcus anaerobius; test: Antibacterial activity against beta-lactamase producing Peptostreptococcus anaerobius by CLSI agar dilution method; assay type: functional
[49] = system: Peptostreptococcus anaerobius; test: Antibacterial activity against beta-lactamase producing Peptostreptococcus anaerobius assessed as susceptible isolates by CLSI agar dilution method; assay type: functional
[50] = system: Peptostreptococcus anaerobius; test: Antibacterial activity against beta-lactamase producing Peptostreptococcus anaerobius assessed as resistant isolates by CLSI agar dilution method; assay type: functional
Parvimonas micra [51] = test: Antibacterial activity against beta-lactamase producing Micromonas micros by CLSI agar dilution method; assay type: functional
Parvimonas micra [52] = test: Antibacterial activity against beta-lactamase producing Micromonas micros assessed as susceptible isolates by CLSI agar dilution method; assay type: functional
Parvimonas micra [53] = test: Antibacterial activity against beta-lactamase producing Micromonas micros assessed as resistant isolates by CLSI agar dilution method; assay type: functional
[54] = system: Peptoniphilus asaccharolyticus; test: Antibacterial activity against beta-lactamase producing Peptoniphilus asaccharolyticus by CLSI agar dilution method; assay type: functional
[55] = system: Peptoniphilus asaccharolyticus; test: Antibacterial activity against beta-lactamase producing Peptoniphilus asaccharolyticus assessed as susceptible isolates by CLSI agar dilution method; assay type: functional
[56] = system: Peptoniphilus asaccharolyticus; test: Antibacterial activity against beta-lactamase producing Peptoniphilus asaccharolyticus assessed as resistant isolates by CLSI agar dilution method; assay type: functional
Finegoldia magna [57] = test: Antibacterial activity against beta-lactamase producing Finegoldia magna by CLSI agar dilution method; assay type: functional
Finegoldia magna [58] = test: Antibacterial activity against beta-lactamase producing Finegoldia magna assessed as susceptible isolates by CLSI agar dilution method; assay type: functional
Finegoldia magna [59] = test: Antibacterial activity against beta-lactamase producing Finegoldia magna assessed as resistant isolates by CLSI agar dilution method; assay type: functional

`CCC[C@@H]1C[C@@H](C(=O)N[C@@H]([C@H]2O[C@H](SC)[C@H](O)[C@@H](O)[C@H]2O)[C@H](C)Cl)N(C)C1` [CLINDAMYCIN] showed an Activity (Bacteroides fragilis [1]) of 63%, an Activity (Bacteroides fragilis [2]) of 37% and an Activity [3] of 43%. For the same compound, the MIC50 (Phocaeicola vulgatus [4]) was 2 µg/mL (≈ 4.71 µM), the MIC90 (Phocaeicola vulgatus [4]) was > 128 µg/mL and the Activity (Phocaeicola vulgatus [5]) was 57%. For the same compound, the Activity (Phocaeicola vulgatus [6]) was 39%, the MIC50 (Bacteroides uniformis [7]) was 2 µg/mL (≈ 4.71 µM) and the MIC90 (Bacteroides uniformis [7]) was > 128 µg/mL. The Activity (Bacteroides uniformis [8]) was 57%, the Activity (Bacteroides uniformis [9]) was 39% and the MIC50 (Bacteroides caccae [10]) was 2 µg/mL (≈ 4.71 µM). For the same compound, the MIC90 (Bacteroides caccae [10]) was > 128 µg/mL, the Activity (Bacteroides caccae [11]) was 57% and the Activity (Bacteroides caccae [12]) was 39%. The MIC50 (Fusobacterium varium [13]) was 0.25 µg/mL (≈ 0.588 µM), the MIC90 (Fusobacterium varium [13]) was 4 µg/mL (≈ 9.41 µM) and the MIC50 (Fusobacterium nucleatum [14]) was 0.25 µg/mL (≈ 0.588 µM). For the same compound, the MIC90 (Fusobacterium nucleatum [14]) was 4 µg/mL (≈ 9.41 µM), the MIC50 (Fusobacterium mortiferum [15]) was 0.25 µg/mL (≈ 0.588 µM) and the MIC90 (Fusobacterium mortiferum [15]) was 4 µg/mL (≈ 9.41 µM). The MIC50 [16] was 0.25 µg/mL (≈ 0.588 µM), the MIC90 [16] was 4 µg/mL (≈ 9.41 µM) and the Activity (Fusobacterium varium [17]) was 85%. For the same compound, the Activity (Fusobacterium nucleatum [18]) was 85%, the Activity (Fusobacterium mortiferum [19]) was 85% and the Activity [20] was 85%. For the same compound, the Activity (Fusobacterium varium [21]) was 7%, the Activity (Fusobacterium nucleatum [22]) was 7% and the Activity (Fusobacterium mortiferum [23]) was 7%. For the same compound, the Activity [24] was 7%, the MIC50 (Prevotella buccae [25]) was 0.12 µg/mL (≈ 0.282 µM) and the MIC90 (Prevotella buccae [25]) was > 128 µg/mL. For the same compound, the MIC50 (Prevotella bivia [26]) was 0.12 µg/mL (≈ 0.282 µM), the MIC90 (Prevotella bivia [26]) was > 128 µg/mL and the MIC50 (Prevotella intermedia [27]) was 0.12 µg/mL (≈ 0.282 µM). For the same compound, the MIC90 (Prevotella intermedia [27]) was > 128 µg/mL, the MIC50 [28] was 0.12 µg/mL (≈ 0.282 µM) and the MIC90 [28] was > 128 µg/mL. It also gave an Activity (Prevotella buccae [29]) of 69%, an Activity (Prevotella bivia [30]) of 69% and an Activity (Prevotella intermedia [31]) of 69%. For the same compound, the Activity [32] was 69%, the Activity (Prevotella buccae [33]) was 31% and the Activity (Prevotella bivia [34]) was 31%. For the same compound, the Activity (Prevotella intermedia [35]) was 31%, the Activity [36] was 31% and the MIC (Veillonella parvula) was 0.06 µg/mL (≈ 0.141 µM). For the same compound, the MIC50 (Clostridium perfringens) was 1 µg/mL (≈ 2.35 µM), the MIC90 (Clostridium perfringens) was 8 µg/mL (≈ 18.8 µM) and the MIC50 [37] was 1 µg/mL (≈ 2.35 µM). It also gave an MIC90 [37] of 8 µg/mL (≈ 18.8 µM), an MIC50 (Clostridium septicum [38]) of 1 µg/mL (≈ 2.35 µM) and an MIC90 (Clostridium septicum [38]) of 8 µg/mL (≈ 18.8 µM). The MIC50 (Clostridium tertium [39]) was 1 µg/mL (≈ 2.35 µM), the MIC90 (Clostridium tertium [39]) was 8 µg/mL (≈ 18.8 µM) and the Activity [40] was 75%. It also gave an Activity (Clostridium septicum [41]) of 75%, an Activity (Clostridium tertium [42]) of 75% and an MIC50 (Bacteroides fragilis [43]) of 1 µg/mL (≈ 2.35 µM). The MIC90 (Bacteroides fragilis [43]) was > 128 µg/mL, the MIC50 [44] was 4 µg/mL (≈ 9.41 µM) and the MIC90 [44] was > 128 µg/mL. It also gave an Activity [45] of 14%, an Activity (Clostridium septicum [46]) of 14% and an Activity (Clostridium tertium [47]) of 14%. The MIC50 [48] was 0.12 µg/mL (≈ 0.282 µM), the MIC90 [48] was 4 µg/mL (≈ 9.41 µM) and the Activity [49] was 88%. The Activity [50] was 9%, the MIC50 (Parvimonas micra [51]) was 0.12 µg/mL (≈ 0.282 µM) and the MIC90 (Parvimonas micra [51]) was 4 µg/mL (≈ 9.41 µM). For the same compound, the Activity (Parvimonas micra [52]) was 88%, the Activity (Parvimonas micra [53]) was 9% and the MIC50 [54] was 0.12 µg/mL (≈ 0.282 µM). It also gave an MIC90 [54] of 4 µg/mL (≈ 9.41 µM), an Activity [55] of 88% and an Activity [56] of 9%. It also gave an MIC50 (Finegoldia magna [57]) of 0.12 µg/mL (≈ 0.282 µM), an MIC90 (Finegoldia magna [57]) of 4 µg/mL (≈ 9.41 µM) and an Activity (Finegoldia magna [58]) of 88%. It also gave an Activity (Finegoldia magna [59]) of 9%.
